This is an account of results in article PMC6770581, “New Thalidomide-Resembling Dicarboximides Target ABC50 Protein and Show Antileukemic and Immunomodulatory Activities” (Biomolecules, 2019).

Data set [1] addresses T1, ABC50 (Homo sapiens, UniProt Q8NE71). In words: ABC50 level by Western blotting in HeLa cells (PROTAC approach). The class given is cell-based. Set-up: endogenous in cells. The settings on record: 96 h, 7 (30 µM), 8 (15 µM), 9 (30 µM). As for the experimental part: (§1) Cells were lysed in TBS buffer containing 1% Triton X-100 and Complete® protease inhibitor cocktail (Roche) for 15 min on ice with occasional vortexing. Insoluble material was centrifuged (12,000 rpm, 15 min, 4 °C) and supernatants were collected. Total protein concentration was measured with DC Protein Assay (Bio-Rad, Hercules, CA, USA). Cell lysates containing 30 µg of total protein were mixed with Laemli buffer supplemented with SDS and β-mercaptoethanol, denatured (10 min, 95 °C) and subjected to sodium dodecyl sulfate polyacrylamide gel electrophoresis (SDS-PAGE) electrophoresis (4% stacking and 10% resolving gels). Resolved proteins were electrotransferred (semi-dry, 90 min, 1.5 mA/cm^2) to a 0.45 µm nitrocellulose membrane (Thermo Scientific, Waltham, MA, USA). Membranes were blocked for 2 hours in TBST buffer (20 mM Tris-HCl pH 7.5, 0.9% NaCl, 0.1% Tween 20) containing 5% BSA (BioShop, Burlington, ON, Canada) and probed with primary antibodies (overnight at 4 °C) diluted in TBST buffer with 0.5% BSA. Tubulin served as a loading control for IB experiments. Anti IKZF3 (rabbit monoclonal, dilution 1:500), anti IKZF1 (rabbit polyclonal, dilution 1:500) were from Abcam. Anti IRF4 (rabbit polyclonal, dilution 1:500) were from Cell Signaling Technology. Anti α-tubulin (mouse monoclonal IgG, 1:1000) was from Sigma Aldrich. Anti ABC50 antibodies (mouse monoclonal ABC5H06, dilution 1:100) was from Abcam. After extensive washing with TBST buffer, membranes were probed with secondary goat anti-rabbit or goat anti-mouse HRP-conjugated IgG (1:5000 in TBST, Santa Cruz Biotech, Dallas, TX, USA) for 45 min at room temperature. […] Protein bands intensities were analysed using Image Quant (version 5.0, GE Healthcare Life Sciences, Pittsburgh, PA, USA).
(§2) ABC50 was identified as the target of the test dicarboximides in the pull-down experiments. […] It must be noted that 7, 8 and 9 were evaluated as mixtures of enantiomers. K562 and HeLa cells were incubated with chimeras 7 (30 µM), 8 (15 µM) and 9 (30 µM) for 96 h and subsequently the level of ABC50 was determined by Western blotting. […]

Data set [2] has as its system K562 cells. The data set can be described thus: MTT cytotoxicity assay, K562. The class given is cell-based. The following applies: Homo sapiens, 48 h, mean ± SD. The protocol:
(§3) Human umbilical vein endothelial cells (purchased from Life Technologies, Carlsbad, CA, USA) were cultured according to the manufacturer’s instructions in Medium 200 supplemented with Low Serum Growth Supplement. 1 × 10^4 cells were seeded on each well on a 96-well plate (Nunc, Roskilde, Denmark). The HeLa (human cervix carcinoma, cat. #93021013), CFPAC (human pancreatic adenocarcinoma, cat. #91112501), K562 (chronic myelogenous leukemia, cat. #89121407), HL-60 (acute myelogenous leukemia, cat. #98070106), and MOLT-4 (Human acute T lymphoblastic leukemia, cat. #85011413) cells were purchased from European Collection of Authenticated Cell Cultures (ECACC). They were cultured in an RPMI 1640 medium supplemented with antibiotics (streptomycin, penicillin) and 10% fetal calf serum (20% for HL60), in a 5% CO2-95% air atmosphere. 7 × 10^3 cells were seeded on each well on a 96-well plate (Nunc). 24 hours later the cells were exposed to the test compounds. The aliquots of stock solutions of the test compounds (freshly prepared in DMSO) were added to the cell cultures to yield final concentrations of 1, 10^−1, 10^−2, 10^−3, 10^−4, and 10^−5 mM. The concentration of DMSO in the cell culture medium was 1%. The IC50 value (the concentration of a test compound required to reduce the cell survival fraction to 50% of the control) was calculated from a dose-response curve and used as a measure of cellular sensitivity to a given treatment. The IC50 values are given as means (± standard deviation (SD)) from 2 independent experiments with 4 technical replicates. The cytotoxicity of all compounds was determined by the MTT (3-(4,5-dimethylthiazol-2-yl)-2,5-diphenyltetrazolium bromide) assay (Sigma, St. Louis, MO, USA). Briefly, after 24 h or 48 h of incubation with a given compound, the cells were treated with the MTT reagent and incubation was continued for 2 h. MTT-formazan crystals were dissolved in 20% SDS and 50% DMF at pH 4.7 and VIS light absorption was measured at 570 and 650 nm on a microplate reader FLUOstar Omega (BMG Labtech, Offenburg, Germany). As a control (100% viability), cells grown in the presence of 1% DMSO were used.

Data set [3] addresses T1, ABC50. In words: ABC50 level by Western blotting in K562 cells (PROTAC approach). The class given is cell-based. Also noted: endogenous in cells; host or cells: K562 cell lysate. The settings on record: K562, 96 h, 7 (30 µM), 8 (15 µM), 9 (30 µM). As for the experimental part: as §1, §2
Data set [4] relates to HUVEC (human umbilical vein endothelial cells). In words: MTT cytotoxicity assay, HUVEC. The class given is cell-based. The settings on record: 48 h, mean ± SD. As for the experimental part: as §3
Another data set has as its system HeLa cells. In words: MTT cytotoxicity assay, HeLa. The following applies: Homo sapiens, 48 h, mean ± SD. The class given is cell-based. As for the experimental part:
as §3

A further data set has as its system MOLT-4 cells. In words: MTT cytotoxicity assay, MOLT-4. The settings on record: Homo sapiens, 48 h, mean ± SD. The class given is cell-based. The protocol: as §3
Data set [5] relates to K562 cells. The data set can be described thus: Annexin V/PI or 7-AAD flow cytometry of apoptosis, K562. The class given is cell-based, human. The following applies: K562, 5× IC50 (3 10 µM, 6 5 µM, 5 5 µM), staurosporine 1 µM; different incubation times for 3, 6 and 5. The protocol:
The phosphatidylserine on the extracellular side of cell membranes was quantified using an FITC Annexin V Apoptosis Detection Kit I (BD Pharmingen, San Diego, CA, USA) according to the manufacturer’s instruction. 10^6 cells were seeded on a 6-well plate (Nunc). […] The control cells were exposed to 1% DMSO or 1μM staurosporine. After treatment the cells were centrifuged at 700 rpm (120× g) for 5 min, washed twice with cold PBS and then resuspended in 1x binding buffer to a density of 10^6 cells/ml. 100 µL of the resuspended cells was stained in the dark with 5 μl of Annexin V-fluoroscein isothiocyanate (FITC) solution and 10 µL propidium iodide (PI) solution for 15 min at room temperature. The samples were then diluted with 400 μL of a binding buffer and within 1 h analyzed with a flow cytometer (BD FACSCalibur^TM, BD Biosciences, San Jose, CA, USA). After treatment, four populations of cells were assessed: (1) viable (neither apoptotic nor necrotic, Annexin V-FITC and PI negative), (2) apoptotic (Annexin V-FITC positive and PI negative), (3) late apoptotic (Annexin V-FITC and PI positive), and (4) necrotic (Annexin V-FITC negative and PI positive).
0.15 × 10^6 cells/ml were seeded on a 6-well plate (Nunclon, Thermo Fisher Scientific, Waltham, MA, USA). Following 24 h preincubation the cells were treated with either the compound or 1% DMSO (control) for 24 or 48 h. After indicated time, the cells were washed with cold PBS (w/o Mg^2+, Ca^2+), stained with Annexin V (FITC Annexin V Apoptosis Detection Kit with 7-aminoactinomycin D (7-AAD), Biolegend, San Diego, CA, USA) according to manufacturer instructions and analysed using BD FACSCalibur flow cytometer. Obtained Flow Cytometry Standard files were analyzed using BD FACSDiva Software (FACSDiva Version 6.1.3, Becton Dickinson Biosciences, San Jose, CA, USA). The experiment was performed three times in at least two technical replicates.

T1 sequence (Q8NE71 whole entry): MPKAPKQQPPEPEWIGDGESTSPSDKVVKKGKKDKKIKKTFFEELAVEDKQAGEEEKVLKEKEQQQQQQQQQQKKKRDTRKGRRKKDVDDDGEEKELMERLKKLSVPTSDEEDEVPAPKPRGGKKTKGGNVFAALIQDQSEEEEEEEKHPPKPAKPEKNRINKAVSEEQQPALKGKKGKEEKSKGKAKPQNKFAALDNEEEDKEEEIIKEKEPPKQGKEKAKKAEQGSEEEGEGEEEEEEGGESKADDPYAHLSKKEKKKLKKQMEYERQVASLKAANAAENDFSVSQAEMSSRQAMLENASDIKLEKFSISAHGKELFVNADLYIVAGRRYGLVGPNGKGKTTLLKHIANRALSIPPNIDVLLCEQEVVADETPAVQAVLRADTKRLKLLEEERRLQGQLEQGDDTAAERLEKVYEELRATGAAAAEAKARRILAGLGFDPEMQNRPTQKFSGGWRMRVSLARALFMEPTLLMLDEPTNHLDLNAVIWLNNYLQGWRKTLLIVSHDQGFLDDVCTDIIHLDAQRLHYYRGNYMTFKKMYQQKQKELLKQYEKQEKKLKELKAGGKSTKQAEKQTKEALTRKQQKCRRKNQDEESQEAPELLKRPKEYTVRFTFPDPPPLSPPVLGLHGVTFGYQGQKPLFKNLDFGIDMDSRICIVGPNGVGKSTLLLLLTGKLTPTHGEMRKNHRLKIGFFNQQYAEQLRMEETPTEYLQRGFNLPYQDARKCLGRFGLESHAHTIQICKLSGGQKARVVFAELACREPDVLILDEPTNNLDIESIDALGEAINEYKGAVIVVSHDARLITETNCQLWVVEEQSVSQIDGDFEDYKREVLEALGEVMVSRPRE

In turn, `CC12C(=O)C(C)(C(c3ccccc3)=C1c1ccccc1)C1C(=O)N(C3CCC(=O)NC3=O)C(=O)C12` (stereo not shown) [Compound 7, 4-(2,6-dioxopiperidin-3-yl)-1,7-dimethyl-8,9-diphenyl-4-azatricyclo[5.2.1.0^2,6]dec-8-ene-3,5,10-trione] returned a melting point of 217 to 218 °C. The “level of ABC50 (Western blotting)” value at ABC50 [1] is “significantly downregulated”. Besides, in the data set with K562 cells [2], the concentration for half-maximal inhibition (IC50) came to 170 µM. The “level of ABC50 (Western blotting)” value at ABC50 [3] is recorded as “significantly reduced”. In data set [4], this molecule gave a 50% inhibitory concentration (IC50) of 200 µM. In the data set on HeLa cells, inhibition was half-maximal at 180 µM (IC50). Further, the IC50 with MOLT-4 cells turned out to be 150 µM.

In the case of `CCC12C(=O)C(CC)(C(c3ccccc3)=C1c1ccccc1)C1C(=O)N(C3CCC(=O)NC3=O)C(=O)C12` (stereo not shown) [Compound 8, 4-(2,6-dioxopiperidin-3-yl)-1,7-diethyl-8,9-diphenyl-4-azatricyclo[5.2.1.0^2,6]dec-8-ene-3,5,10-trione], the melting point lay in the range of 232 to 234 °C. In addition, the “level of ABC50 (Western blotting)” value at ABC50 [1] is given as “significantly downregulated”. This molecule returned a concentration for half-maximal inhibition (IC50) in the data set on K562 cells [2] of 25 µM. The “level of ABC50 (Western blotting)” value at ABC50 [3] was “significantly reduced”. In data set [4], this molecule registered an IC50 of 65 µM. This molecule also yielded an IC50 in the data set on HeLa cells of more than 200 µM. The molecule further came in with an IC50 in the data set on MOLT-4 cells of 18 µM.

`O=C1CCC(N2C(=O)C3C(C2=O)C2(c4ccccc4)C(=O)C3(c3ccccc3)C(c3ccccc3)=C2c2ccccc2)C(=O)N1` (stereo not shown) [Compound 9, 4-(2,6-dioxopiperidin-3-yl)-1,7,8,9-tetraphenyl-4-azatricyclo[5.2.1.0^2,6]dec-8-ene-3,5,10-trione] registered a melting point of 230 to 232 °C. The “level of ABC50 (Western blotting)” value at ABC50 [1] is on record as “didn’t have such pronounced effect”. In the data set on K562 cells [2], this molecule returned a half-inhibitory concentration (IC50) of more than 200 µM. The “level of ABC50 (Western blotting)” value at ABC50 [3] is on record as “significantly reduced”. In data set [4], the IC50 was more than 200 µM. The half-inhibitory concentration (IC50) in the data set with HeLa cells is more than 200 µM. Further, the IC50 with MOLT-4 cells is more than 200 µM.

Take `CN[C@@H]1C[C@H]2O[C@@](C)([C@@H]1OC)n1c3ccccc3c3c4c(c5c6ccccc6n2c5c31)C(=O)NC4` [staurosporine, reference compound]: the “apoptotic cells, early (LR) and late (UR)” value in the data set on K562 cells [5] was “about 25%”.
